Molecules are shown by their SMILES. pIC50: −log10 of the molar value. In brackets after ≈: the same amount, converted by molar mass. Structures can show the parent of a compound that is named as a salt. A value given as a limit tells only on which side of the number the result lay.

The nature of data set [1]: Solubility determination in oil (Table 10). To be noted: thermodynamic from solid; for solubility thermodynamic: water, Equilibrium solubility: Water. On the procedure: A known amount of test substance (˜40 mg) was weighed into the vial, 100 μL of oil was added and heated to 60° C. and then system was slurried to reach equilibrium. […] Extra oil was added into the vial once compound precipitated out and then the system was re-equilibrated at 1000 rpm at room temperature (25° C.). Final concentration was determined by HPLC method as described below in Table 6a and 6b.

Data set [2] is described as follows: Dog pharmacokinetic studies, deep intramuscular administration. The class given is in vivo, Beagle dogs. The note with it: IM 48 mg/kg, Sesame oil + 1% Benzyl Alcohol; for AUC(0-inf) / half-life: Beagle, dog, plasma, im, 48 mg/kg; for AUC(0-inf): read-out: AUC0-inf (ng · h/mL) prodrug; for half-life: read-out: Half-life t1/2 (hour) prodrug (converted). Here is the method: The purpose of this study is to determine the pharmacokinetics of test compounds in plasma, following deep intramuscular administration to Beagle dogs (n=3, unless otherwise specified).
The dose formulation (concentration—400 mg base equivalents/ml in sesame oil+1% benzyl alcohol, unless otherwise specified) was administered via deep intramuscularly (unless otherwise specified). The injection vehicle was also dosed via deep intramuscular route (unless otherwise specified) on contralateral site of each animal at study initiation. The animals were sedated with Propofol at 6 mg/kg via IV administration. Following sedation hair was carefully removed from around the injection site and the area gently cleaned. Care will be taken to avoid irritating skin during shaving and cleaning the injection site. Then dogs will be dosed with deep IM administration. At least 2.5 cm depth from the surface into the central aspect of the quadriceps or biceps femoris muscle, by angling the needle toward the femur. If the needle hits the femur, simply draws back slightly and then inject. The dose volume will be determined by the animals' body weight collected on the morning of dosing day. For repeated administration, the injection sites may be rotated to minimize tissue injury.
Blood samples were collected from a peripheral vessel from restrained, non-sedated animals per sampling time point.
Approximately 0.8 mL blood will be collected at each time point.
Each collected blood sample was centrifuged for 4 minutes at 4° C. and 10000 rpm for plasma collection. Plasma was collected and transferred into a pre-labeled PP tube in dry ice at each time point and precipitated immediately using ACN at a ratio of 1:4 (plasma:ACN).
(§1) LC-MS/MS methods for the quantitative determination of test compound in biological matrix were developed. […] The sample analysis was performed concurrently with a set of calibration standards and two sets of QC samples using the LC-MS/MS method.
(§2) Plasma concentration versus time data was analyzed by non-compartmental approaches using the Phoenix WinNonlin 6.3 software program. Cmax, Tmax, T1/2, AUC(0-t), AUC(0-inf), MRT(0-t), MRT(0-inf) and graphs of plasma concentration versus time profile were prepared.

A short description of data set [3]: Rat pharmacokinetic studies, intramuscular administration. The class given is in vivo, male Sprague Dawley Rats. The note with it: for AUC(0-inf): read-out: AUC0-inf (ng · h/mL) prodrug. On the procedure:
The purpose of this study is to determine the pharmacokinetics of test compounds in plasma, following intramuscular administration to male Sprague Dawley Rats (n=3, unless otherwise specified).
The dose formulation of 400 mg base equivalents/ml in sesame oil+1% benzyl alcohol (unless otherwise specified) was administered by intramuscular injection. The dose volume was determined by the animals' body weight determined on the morning of dosing day.
Each collected blood sample was centrifuged for 4 minutes at 4° C. and 10000 rpm for plasma collection. Plasma was collected and transferred into a pre-labeled PP tube in dry ice at each time point and precipitated immediately using ACN at a ratio of 1:4 (plasma:ACN). Centrifuged again (10 minutes, 12000 rpm) and obtain the supernatant.
as §1, §2

A further data set concerns the target T1, MOR (Homo sapiens, UniProt P35372).
T1 construct: expressed in transfected cells
Kind of data set: Opioid receptor binding assay, MOR ([3H]DAMGO). Here is the method: (§3) Receptor binding assays were performed to assess the ability of compounds to inhibit binding to radiolabeled ligand.
(§4) The stable cell lines were established and prepared cell membrane obtained using these cell lines.
(§5) 1) Transfer 1 μl of specified concentration compound to assay plate according to the plate map for nonspecific binding. Transfer 1 μl of DMSO to assay plate according to plate map for total binding. 2) Follow the plate map. Dispense 99 μl of membrane stocks into the plate. 3) Add 100 μl of radio ligand. 4) Seal the plates. Incubate at RT for 1 hour. 5) Soak the Unifilter-96 GF/C filter plates with 50 μl of 0.3% PEI per well for at least 0.5 hour at room temperature. 6) When binding assays are completed, filter the reaction mixture through GF/C plates using Perkin Elmer Filtermate Harvester, and then wash each plate for 4 times with cold wash buffer. 7) Dry the filter plates for 1 hour at 50 degrees. 8) After drying, seal the bottom of the filter plate wells using Perkin Elmer Unifilter-96 backing seal tape. Add 50 μl of Perkin Elmer Microscint 20 cocktail. Seal top of filter plates with Perkin Elmer TopSeal-A sealing film. 9) Count ^3H trapped on filter using Perkin Elmer MicroBeta2 Reader second day. 10) Analyze the data with GraphPad Prism 5. Calculate the “Inhibition [% Control]” using the equation: % Inh=(1−Background subtracted Assay value/Background subtracted HC value)*100.

The target of another data set is T2, KOR (Homo sapiens, UniProt P41145).
T2 construct: expressed in transfected cells
T2 sequence (P41145 whole entry): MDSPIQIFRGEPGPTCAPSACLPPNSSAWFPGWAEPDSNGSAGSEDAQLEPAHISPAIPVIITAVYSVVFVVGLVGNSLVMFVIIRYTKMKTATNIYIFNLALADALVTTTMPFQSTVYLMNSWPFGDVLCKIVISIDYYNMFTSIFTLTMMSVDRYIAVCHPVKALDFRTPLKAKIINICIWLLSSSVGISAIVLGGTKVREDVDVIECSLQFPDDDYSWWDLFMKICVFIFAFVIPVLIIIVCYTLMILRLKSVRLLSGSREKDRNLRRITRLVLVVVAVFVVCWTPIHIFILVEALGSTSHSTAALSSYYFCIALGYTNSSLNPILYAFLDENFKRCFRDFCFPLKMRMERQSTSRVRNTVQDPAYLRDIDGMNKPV
Kind of data set: Opioid receptor binding assay, KOR ([3H]Diprenorphine). On the procedure: as §3, §4, §5

The target of another data set is T3, DOR (Homo sapiens, UniProt P41143).
T3 construct: expressed in transfected cells
T3 sequence (P41143 whole entry): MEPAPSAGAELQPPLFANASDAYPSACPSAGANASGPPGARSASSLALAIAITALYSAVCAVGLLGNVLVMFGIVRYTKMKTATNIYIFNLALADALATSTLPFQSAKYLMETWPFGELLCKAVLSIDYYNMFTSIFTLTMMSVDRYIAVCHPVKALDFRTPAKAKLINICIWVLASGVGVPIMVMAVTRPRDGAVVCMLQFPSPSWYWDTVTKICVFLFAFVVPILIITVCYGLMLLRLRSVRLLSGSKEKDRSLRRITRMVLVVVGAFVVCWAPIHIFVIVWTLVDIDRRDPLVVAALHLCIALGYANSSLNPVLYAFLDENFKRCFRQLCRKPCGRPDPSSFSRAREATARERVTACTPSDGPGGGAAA
Kind of data set: Opioid receptor binding assay, DOR ([3H]-DADLE). Here is the method:
as §3, §4, §5

The mark [4] stands for this setting: 25 °C, oil or lipid, Solubility by volumetric flask method: Cottonseed oil, volumetric flask method, Heating Temp. 60 °C, Obs. Temp. 25 °C.
Setting [5] is: 25 °C, oil or lipid, Solubility by volumetric flask method: Sesame oil, volumetric flask method, Heating Temp. 60 °C, Obs. Temp. 25 °C.
[6] abbreviates: 40 °C, section 'Solubility by volumetric flask method', Heating Temp. 40 °C, Obs. Temp. 40 °C.
The mark [7] stands for this setting: 25 °C, oil or lipid, Approximate Solubility in Excipient: Cottonseed oil, Heating Temp. 60 °C, Obs. Temp. 25 °C.
Setting [8] is: 25 °C, oil or lipid, Approximate Solubility in Excipient: Sesame oil, Heating Temp. 60 °C, Obs. Temp. 25 °C.
Setting [9] is: 40 °C, Heating Temp. 40 °C, Obs. Temp. 40 °C.
Where [10] appears, read: male, Sprague Dawley, rat, plasma, intramuscular, 0.8 mg/kg.

T1 sequence (P35372 whole entry): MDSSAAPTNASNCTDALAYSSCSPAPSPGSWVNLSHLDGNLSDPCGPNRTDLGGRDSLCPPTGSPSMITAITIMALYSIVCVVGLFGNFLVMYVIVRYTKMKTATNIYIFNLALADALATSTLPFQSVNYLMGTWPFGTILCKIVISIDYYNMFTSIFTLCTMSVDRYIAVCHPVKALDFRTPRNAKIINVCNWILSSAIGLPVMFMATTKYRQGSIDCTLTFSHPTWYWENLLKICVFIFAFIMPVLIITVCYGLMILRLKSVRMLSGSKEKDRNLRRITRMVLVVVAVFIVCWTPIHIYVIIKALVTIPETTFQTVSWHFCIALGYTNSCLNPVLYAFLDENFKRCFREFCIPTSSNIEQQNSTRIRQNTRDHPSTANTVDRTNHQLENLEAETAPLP

For the compound `CCCCCCCCCCCOC(=O)OCOc1ccc2c3c1O[C@H]1C(=O)CC[C@@]4(O)C(C2)N(CC2CC2)CC[C@]314` [Compound 4, (((4aS,7aR,12bS)-3-(cyclopropylmethyl)-4a-hydroxy-7-oxo-2,3,4,4a,5,6,7,7a-octahydro-1H-4,12-methanobenzofuro[3,2-e]isoquinolin-9-yl)oxy)methyl undecyl carbonate], the solubility (as a rule, the concentration that dissolves in the medium under given conditions) in data set [1] (setting [4]) was over 395 mg/mL; in data set [1] (setting [5]) it was over 400 mg/mL. In addition, in data set [1] (setting [6]), the solubility (thermodynamic) (usually the concentration in solution at equilibrium with solid) was under 0.001 mg/mL. Moreover, in data set [2], the AUC(0-inf) was 829 ng·h/mL.
Consider `C=C1CC[C@@]2(O)C3Cc4ccc(OC(=O)CCCCCCCCCCC)c5c4[C@@]2(CCN3CC2CC2)[C@H]1O5` [Compound 59, (4aS,7aS,12bS)-3-(cyclopropylmethyl)-4a-hydroxy-7-methylene-2,3,4,4a,5,6,7,7a-octahydro-1H-4,12-methanobenzofuro[3,2-e]isoquinolin-9-yl dodecanoate, reference compound], for which, in data set [3] (male, Sprague Dawley, rat, plasma, im, 17 mg/kg, Sesame oil + 1% Benzyl Alcohol), the AUC(0-inf) came to 10.4 ng·h/mL. For the same compound, the half-life in data set [3] (male, Sprague Dawley, rat, plasma, im, 17 mg/kg, Sesame oil + 1% Benzyl Alcohol, read-out: Half-life t1/2 (hour) prodrug (converted)) was 15.2 h.
On to `CCCCCCCCOC(=O)Oc1ccc2c3c1O[C@H]1C(=O)CC[C@@]4(O)C(C2)N(CC2CC2)CC[C@]314` [Compound 23, (4aS,7aR,12bS)-3-(cyclopropylmethyl)-4a-hydroxy-7-oxo-2,3,4,4a,5,6,7,7a-octahydro-1H-4,12-methanobenzofuro[3,2-e]isoquinolin-9-yl octyl carbonate], for which the results for the pIC50 at MOR, at KOR and at DOR were 8.55, 7.93 and 6.97, respectively. The values for the solubility at 24 h in data set [1] (setting [7]) and in data set [1] (setting [8]) were over 408 mg/mL and over 424 mg/mL, respectively. The solubility in data set [1] (40 °C, oil or lipid, Approximate Solubility in Excipient: Cottonseed oil, Heating Temp. 60 °C, Obs. Temp. 40 °C) is over 412 mg/mL; in data set [1] (40 °C, organic solvent or mixture, Approximate Solubility in Excipient: Ethanol, Heating Temp. 60 °C, Obs. Temp. 40 °C) it was over 419 mg/mL. The compound also came in with a solubility (thermodynamic) in data set [1] (40 °C, Heating Temp. 60 °C, Obs. Temp. 40 °C) of 0.0094 mg/mL (≈ 0.0189 mM).
Consider `C=C1CC[C@@]2(O)C3Cc4ccc(OCOC(=O)OCCCCCCCCCCCCCC)c5c4[C@@]2(CCN3CC2CC2)[C@H]1O5` [Compound 25, (((4aS,7aS,12bS)-3-(cyclopropylmethyl)-4a-hydroxy-7-methylene-2,3,4,4a,5,6,7,7a-octahydro-1H-4,12-methanobenzofuro[3,2-e]isoquinolin-9-yl)oxy)methyl tetradecyl carbonate], for which the pIC50 (commonly −log10 of the IC50, conventionally taken in molar units) is 8.30 on MOR, 6.05 on KOR and 5.02 at DOR. Further, the results for the solubility at 24 h in data set [1] (setting [7]) and in data set [1] (setting [8]) were over 414 mg/mL and over 404 mg/mL, respectively. Further, the solubility (thermodynamic) in data set [1] (setting [9]) is under 0.001 mg/mL.
In the case of `C=C1CC[C@@]2(O)C3Cc4ccc(OCOC(=O)OCCCCCCCCCC)c5c4[C@@]2(CCN3CC2CC2)[C@H]1O5` [Compound 35, (((4aS,7aS,12bS)-3-(cyclopropylmethyl)-4a-hydroxy-7-methylene-2,3,4,4a,5,6,7,7a-octahydro-1H-4,12-methanobenzofuro[3,2-e]isoquinolin-9-yl)oxy)methyl decyl carbonate], in data set [2], the half-life is 70 h, the “AUC0-inf (ng · h/mL) nalmefene or naltrexone” value is given as “None” and the “AUC0-inf (ng · h/mL) prodrug” value is recorded as “None”.
Consider `CCCCCCCC/C=C/CCCCCCCCOC(=O)OCOc1ccc2c3c1O[C@H]1C(=O)CC[C@@]4(O)C(C2)N(CC2CC2)CC[C@]314` [Compound 7, (((4aS,7aR,12bS)-3-(cyclopropylmethyl)-4a-hydroxy-7-oxo-2,3,4,4a,5,6,7,7a-octahydro-1H-4,12-methanobenzofuro[3,2-e]isoquinolin-9-yl)oxy)methyl ((E)-octadec-9-en-1-yl) carbonate], for which, in data set [2], the AUC(0-inf) came to 610 ng·h/mL.
For `C=C1CC[C@@]2(O)C3Cc4ccc(OC(=O)OCCCCCCCCCCC)c5c4[C@@]2(CCN3CC2CC2)[C@H]1O5` [Compound 3, (4aS,7aS,12bS)-3-(cyclopropylmethyl)-4a-hydroxy-7-methylene-2,3,4,4a,5,6,7,7a-octahydro-1H-4,12-methanobenzofuro[3,2-e]isoquinolin-9-yl undecyl carbonate], the solubility was over 399 mg/mL in data set [1] (setting [4]) and over 401 mg/mL in data set [1] (setting [5]). Also, in data set [1] (setting [6]), the solubility (thermodynamic) was under 0.001 mg/mL. Besides, the AUC(0-inf) in data set [2] is 360 ng·h/mL. Besides, the half-life in data set [2] was 63.1 h.
In the case of `CCCCCCCCCCCCOC(=O)OCOc1ccc2c3c1O[C@H]1C(=O)CC[C@@]4(O)C(C2)N(CC2CC2)CC[C@]314` [Compound 29, (((4aS,7aR,12bS)-3-(cyclopropylmethyl)-4a-hydroxy-7-oxo-2,3,4,4a,5,6,7,7a-octahydro-1H-4,12-methanobenzofuro[3,2-e]isoquinolin-9-yl)oxy)methyl dodecyl carbonate], the solubility at 24 h was over 410 mg/mL in data set [1] (setting [7]) and over 416 mg/mL in data set [1] (setting [8]). In data set [1] (setting [9]), this compound registered a thermodynamic solubility of under 0.001 mg/mL. Further, in data set [3] (male, Sprague Dawley, rat, plasma, im, 165 mg/kg, Sesame oil + 1% Benzyl Alcohol), the AUC(0-inf) is 74.8 ng·h/mL.
With `C=C1CC[C@@]2(O)[C@H]3Cc4ccc(O)c5c4[C@@]2(CCN3CC2CC2)[C@H]1O5.Cl` [Nalmefene HCl - IR], in data set [3] (0.80 mg/kg, saline), the “AUC0-inf (ng · h/mL) nalmefene” value was determined as 66.0 ng·h/mL and the “Terminal Half-life t1/2 (hour) nalmefene” value was 0.87 h.
In data set [3] (setting [10]), `C=C1CC[C@@]2(O)[C@H]3Cc4ccc(O)c5c4[C@@]2(CCN3CC2CC2)[C@H]1O5` [nalmefene HCL, reference compound] registered a concentration at 1 h of 29.4 ng/mL, a concentration at 2 h of 2.09 ng/mL, a concentration at 4 h of 0.212 ng/mL and a concentration at 8 h of 0.0178 ng/mL.
